In PubChem BioAssay (NCI):
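These data come from cells grown in 96-well plates and exposed to compound for 48 hours at five concentrations. GI50 marks 50% less growth. TGI marks complete inhibition of growth.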

Experiments:
Experiment in all cases: NCI tumour cell line growth inhibition, 48 h
[1] = tested on: EKVX NSCLC
[2] = tested on: HOP-62 NSCLC
[3] = tested on: HOP-92 NSCLC
[4] = tested on: KM12 colon
[5] = tested on: SF-295 CNS
[6] = tested on: RPMI-8226 leukemia
[7] = tested on: MDA-MB-435
[8] = tested on: OVCAR-4 ovarian
[9] = tested on: LOX IMVI melanoma
[10] = tested on: OVCAR-5 ovarian
[11] = tested on: SF-268 CNS
[12] = tested on: OVCAR-8 ovarian
[13] = tested on: HT29 colon
[14] = tested on: HCT-15 colon
[15] = tested on: NCI-H226 lung
[16] = tested on: SNB-19 CNS
[17] = tested on: SN12C renal
[18] = tested on: ACHN renal
[19] = tested on: IGROV1 ovarian
[20] = tested on: A549 NSCLC
[21] = tested on: CCRF-CEM leukemia
[22] = tested on: TK-10 renal
[23] = tested on: RXF 393 renal
[24] = tested on: SK-MEL-2 melanoma
[25] = tested on: UACC-62 melanoma
[26] = tested on: PC-3 prostate
[27] = tested on: MALME-3M melanoma
[28] = tested on: DU-145 prostate
[29] = tested on: UO-31 renal
[30] = tested on: HCT-116 colon
[31] = tested on: NCI-H460 lung
[32] = tested on: 786-0 renal
[33] = tested on: MOLT-4 leukemia
[34] = tested on: SR leukemia
[35] = tested on: HS 578T breast
[36] = tested on: NCI-H522 lung
[37] = tested on: NCI/ADR-RES ovarian
[38] = tested on: MDA-MB-231 breast
[39] = tested on: K-562 leukemia
[40] = tested on: NCI-H23 lung
[41] = tested on: HL-60(TB) leukemia
[42] = tested on: SK-MEL-5 melanoma
[43] = tested on: M14 melanoma
[44] = tested on: SK-OV-3 ovarian
[45] = tested on: SK-MEL-28 melanoma
[46] = tested on: COLO 205 colon
[47] = tested on: T-47D breast
[48] = tested on: U251 CNS
[49] = tested on: BT-549 breast
[50] = tested on: HCC-2998 colon
[51] = tested on: SW-620 colon
[52] = tested on: SNB-75 CNS

For `ClC(Cl)c1nc(-c2ccco2)n2nc(-c3ccccc3)cc2n1`, the GI50 [1] was 1.56 µM, the TGI [1] was 5.18 µM and the GI50 [2] was 0.679 µM. It also gave a TGI [2] of 4.5 µM, a GI50 [3] of 0.535 µM and a TGI [3] of 3.64 µM. The GI50 [4] was 0.352 µM, the TGI [4] was 1.71 µM and the GI50 [5] was 1.66 µM. For the same compound, the TGI [5] was 6.13 µM, the GI50 [6] was 0.54 µM and the TGI [6] was > 22.6 µM. For the same compound, the GI50 [7] was 2.64 µM, the TGI [7] was > 100 µM and the GI50 [8] was 5.45 µM. For the same compound, the TGI [8] was > 100 µM, the GI50 [9] was > 100 µM and the TGI [9] was > 100 µM. The GI50 [10] was 2.02 µM, the TGI [10] was > 100 µM and the GI50 [11] was 1.98 µM. For the same compound, the TGI [11] was > 100 µM, the GI50 [12] was 1.62 µM and the TGI [12] was > 100 µM. The GI50 [13] was 0.338 µM, the TGI [13] was 2.16 µM and the GI50 [14] was 0.617 µM. For the same compound, the TGI [14] was > 100 µM, the GI50 [15] was > 100 µM and the TGI [15] was > 100 µM. For the same compound, the GI50 [16] was 0.998 µM, the TGI [16] was > 100 µM and the GI50 [17] was > 100 µM. For the same compound, the TGI [17] was > 100 µM, the GI50 [18] was 0.365 µM and the TGI [18] was 2.03 µM. The GI50 [19] was > 63.1 µM, the TGI [19] was > 100 µM and the GI50 [20] was 1.56 µM. For the same compound, the TGI [20] was 6.16 µM, the GI50 [21] was > 100 µM and the TGI [21] was > 100 µM. The GI50 [22] was 4.96 µM, the TGI [22] was > 100 µM and the GI50 [23] was 0.528 µM. For the same compound, the TGI [23] was 76.4 µM, the GI50 [24] was > 100 µM and the TGI [24] was > 100 µM. For the same compound, the GI50 [25] was > 100 µM, the TGI [25] was > 100 µM and the GI50 [26] was 1.67 µM. The TGI [26] was 16.2 µM, the GI50 [27] was > 100 µM and the TGI [27] was > 100 µM. For the same compound, the GI50 [28] was 0.355 µM, the TGI [28] was 1.41 µM and the GI50 [29] was 1.61 µM. The TGI [29] was > 23.9 µM, the GI50 [30] was 0.639 µM and the TGI [30] was > 39.3 µM. For the same compound, the GI50 [31] was 0.265 µM, the TGI [31] was 0.844 µM and the GI50 [32] was > 23.5 µM. The TGI [32] was > 100 µM, the GI50 [33] was > 100 µM and the TGI [33] was > 100 µM. For the same compound, the GI50 [34] was > 60.2 µM, the TGI [34] was > 100 µM and the GI50 [35] was 2.17 µM. For the same compound, the TGI [35] was 7.46 µM, the GI50 [36] was > 100 µM and the TGI [36] was > 100 µM. The GI50 [37] was 0.801 µM, the TGI [37] was > 100 µM and the GI50 [38] was 0.791 µM. For the same compound, the TGI [38] was 5.02 µM, the GI50 [39] was > 39.1 µM and the TGI [39] was > 100 µM. The GI50 [40] was 9.81 µM, the TGI [40] was > 100 µM and the GI50 [41] was 0.304 µM. The TGI [41] was 1.69 µM, the GI50 [42] was > 100 µM and the TGI [42] was > 100 µM. The GI50 [43] was > 100 µM, the TGI [43] was > 100 µM and the GI50 [44] was 6.76 µM. For the same compound, the TGI [44] was > 100 µM, the GI50 [45] was 3.76 µM and the TGI [45] was > 100 µM. The GI50 [46] was 1.15 µM, the TGI [46] was 3.58 µM and the GI50 [47] was 1.47 µM. The TGI [47] was > 100 µM, the GI50 [48] was 0.343 µM and the TGI [48] was 2.33 µM. For the same compound, the GI50 [49] was > 100 µM, the TGI [49] was > 100 µM and the GI50 [50] was 0.553 µM. For the same compound, the TGI [50] was 1.85 µM, the GI50 [51] was 0.445 µM and the TGI [51] was > 82.5 µM. The GI50 [52] was 0.219 µM and the TGI [52] was 3.07 µM.
